Values quoted from earlier work as cited in US20090306944A1, “DEVICE AND METHOD FOR CALCULATING AND SUPPLYING A DRUG DOSE” (BAYER TECHNOLOGY SERVICES GMBH, priority 2006, published 2009).
Where two headings read alike, the source gives them in different places.

Experiments:
CYP1A2 = target: T1, CYP1A2 (Homo sapiens, UniProt P05177); details: proportion of overall clearance, reference value in an adult
T1 sequence (P05177 1-516): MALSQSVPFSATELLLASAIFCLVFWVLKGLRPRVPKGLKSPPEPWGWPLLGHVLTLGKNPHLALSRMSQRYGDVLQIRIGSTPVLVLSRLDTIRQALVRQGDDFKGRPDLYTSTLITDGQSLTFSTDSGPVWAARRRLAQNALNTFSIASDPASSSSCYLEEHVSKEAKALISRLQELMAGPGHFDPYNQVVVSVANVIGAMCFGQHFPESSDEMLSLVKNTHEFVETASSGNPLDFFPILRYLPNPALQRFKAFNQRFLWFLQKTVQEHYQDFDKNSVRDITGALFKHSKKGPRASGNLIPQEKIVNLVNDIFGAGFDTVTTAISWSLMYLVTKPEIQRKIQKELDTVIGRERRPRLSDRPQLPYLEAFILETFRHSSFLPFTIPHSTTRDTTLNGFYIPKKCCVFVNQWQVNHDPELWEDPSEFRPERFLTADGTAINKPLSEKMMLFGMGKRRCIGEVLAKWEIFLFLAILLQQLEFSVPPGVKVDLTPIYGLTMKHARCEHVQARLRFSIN

CYP2E1 = CYP2E1 (Homo sapiens, UniProt P05181); details: proportion of overall clearance, reference value in an adult
Sequence of CYP2E1 (P05181 whole entry): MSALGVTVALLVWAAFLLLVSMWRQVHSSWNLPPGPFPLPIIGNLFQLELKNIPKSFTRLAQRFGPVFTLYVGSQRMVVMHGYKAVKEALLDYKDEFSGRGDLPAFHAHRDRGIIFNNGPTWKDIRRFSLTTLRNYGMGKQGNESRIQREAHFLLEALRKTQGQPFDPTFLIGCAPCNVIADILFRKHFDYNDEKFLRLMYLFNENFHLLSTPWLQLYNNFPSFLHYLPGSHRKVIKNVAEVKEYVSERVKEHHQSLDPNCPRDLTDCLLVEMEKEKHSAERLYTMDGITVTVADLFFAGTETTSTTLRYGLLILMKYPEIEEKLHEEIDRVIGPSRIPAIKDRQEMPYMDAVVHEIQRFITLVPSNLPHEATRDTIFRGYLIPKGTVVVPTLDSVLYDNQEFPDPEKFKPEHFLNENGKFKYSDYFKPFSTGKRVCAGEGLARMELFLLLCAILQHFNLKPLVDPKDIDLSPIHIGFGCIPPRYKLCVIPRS

[1] = for main binding protein in the plasma: adult
[2] = intravenously administered
[3] = proportion of overall clearance, reference value in an adult
UGT1A1 = UGT1A1 (Homo sapiens, UniProt P22309); details: proportion of overall clearance, reference value in an adult
Sequence of UGT1A1 (P22309 26-533): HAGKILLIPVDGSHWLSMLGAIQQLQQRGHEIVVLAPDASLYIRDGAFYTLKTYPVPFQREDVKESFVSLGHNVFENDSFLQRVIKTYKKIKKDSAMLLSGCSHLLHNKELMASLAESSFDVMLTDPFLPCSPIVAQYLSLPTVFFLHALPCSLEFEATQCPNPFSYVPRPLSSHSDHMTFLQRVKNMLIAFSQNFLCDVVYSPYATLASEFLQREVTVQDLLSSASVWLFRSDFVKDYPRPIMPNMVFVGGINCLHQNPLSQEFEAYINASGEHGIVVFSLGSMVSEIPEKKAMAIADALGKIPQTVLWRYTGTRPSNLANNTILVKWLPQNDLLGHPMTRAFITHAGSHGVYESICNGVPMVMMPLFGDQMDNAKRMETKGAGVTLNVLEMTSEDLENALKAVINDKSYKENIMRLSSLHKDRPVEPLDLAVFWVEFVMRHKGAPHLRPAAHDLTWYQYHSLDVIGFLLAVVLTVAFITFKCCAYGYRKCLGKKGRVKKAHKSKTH

UGT2B7 = target: T2, UGT2B7 (Homo sapiens, UniProt P16662); details: proportion of overall clearance, reference value in an adult
T2 sequence (P16662 24-529): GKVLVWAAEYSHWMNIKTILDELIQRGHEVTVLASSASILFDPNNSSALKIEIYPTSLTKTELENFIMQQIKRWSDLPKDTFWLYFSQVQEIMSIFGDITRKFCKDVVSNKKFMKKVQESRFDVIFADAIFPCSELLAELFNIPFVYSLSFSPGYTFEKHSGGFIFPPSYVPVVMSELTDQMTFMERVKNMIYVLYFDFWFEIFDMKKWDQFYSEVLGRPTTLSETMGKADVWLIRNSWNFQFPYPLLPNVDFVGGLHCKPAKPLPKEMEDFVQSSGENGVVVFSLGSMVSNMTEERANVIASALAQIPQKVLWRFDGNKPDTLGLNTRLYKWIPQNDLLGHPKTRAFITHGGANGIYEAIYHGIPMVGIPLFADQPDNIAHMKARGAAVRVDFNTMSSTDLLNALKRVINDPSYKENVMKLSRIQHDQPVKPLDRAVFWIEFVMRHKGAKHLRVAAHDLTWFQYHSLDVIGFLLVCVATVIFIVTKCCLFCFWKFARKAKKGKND

CYP3A = details: in vivo
CYP3A4 = target: T3, CYP3A4 (Homo sapiens, UniProt P08684); details: proportion of overall clearance, reference value in an adult
T3 construct: the metabolizing enzymes in the liver; host or cells: liver enzymes of the adult, in vivo clearance
T3 sequence (P08684 whole entry): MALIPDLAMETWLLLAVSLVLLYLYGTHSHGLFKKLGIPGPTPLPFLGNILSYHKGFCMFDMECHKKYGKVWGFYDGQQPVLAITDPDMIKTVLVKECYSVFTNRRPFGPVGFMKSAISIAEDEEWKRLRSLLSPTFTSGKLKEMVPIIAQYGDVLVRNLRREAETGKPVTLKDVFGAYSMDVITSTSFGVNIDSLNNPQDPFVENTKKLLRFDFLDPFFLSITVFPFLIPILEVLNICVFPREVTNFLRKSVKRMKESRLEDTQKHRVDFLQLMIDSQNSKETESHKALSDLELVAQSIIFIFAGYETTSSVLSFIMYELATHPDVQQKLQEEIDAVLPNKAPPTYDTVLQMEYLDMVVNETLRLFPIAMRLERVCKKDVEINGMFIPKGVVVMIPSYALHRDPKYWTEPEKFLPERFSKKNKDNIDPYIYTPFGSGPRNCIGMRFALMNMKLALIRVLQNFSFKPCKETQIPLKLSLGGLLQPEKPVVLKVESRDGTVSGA

[4] = Measured
[5] = proportion of overall clearance, reference value in an adult
[6] = with co-medication with cyclosporin

Compound: Cn1c(=O)c2c(ncn2C)n(C)c1=O [Caffeine]
- Excretion process: CYP1A2 (CYP1A2): CYP1A2 (85%),
- Excretion process: CYP2E1 (CYP2E1): CPY2E1 (13%),
- Free fraction in the plasma ([1]; reference value in an adult): 70% (albumin)

Compound: O=C(O)c1cn(C2CC2)c2cc(N3CCNCC3)c(F)cc2c1=O [Ciprofloxacin]
- fraction renally excreted without being changed [2]: Approximately ⅔

Compound: CN[C@@H]1[C@@H](O)[C@@H](O[C@@H]2[C@@H](O)[C@H](O[C@H]3O[C@H](CN)[C@@H](O)[C@H](O)[C@H]3O)[C@@H](N)C[C@H]2NC(=O)[C@@H](O)CN)OC[C@]1(C)O [Isepamicin]
- Excretion process: Renal [5]: Renal (100%)
- Free fraction in the plasma ([1]; reference value in an adult): 95%

Compound: C[C@H]1COc2c(N3CCN(C)CC3)c(F)cc3c(=O)c(C(=O)O)cn1c23 [Levofloxacin]
- Excretion process: Renal (in vivo): Renal (80%)
- Excretion process: Billiary [3]: Billiary (10%)
- Excretion process: UGT1A1 (UGT1A1): UGT1A1 (10%)
- Free fraction in the plasma ([1]; reference value in an adult): 70% (Albumin)

Compound: O=C1Nc2ccc(Cl)cc2C(c2ccccc2Cl)=NC1O (stereo not drawn) [Lorazepam]
- Excretion process: UGT2B7 (UGT2B7): UGT2B7 (100%)
- Free fraction in the plasma ([1]; plasma): 8% (Albumin)

Compound: Cc1ncc2n1-c1ccc(Cl)cc1C(c1ccccc1F)=NC2 [Midazolam]
- Excretion process: CYP3A (CYP3A): CYP3A (100%)
- Free fraction in the plasma ([1]; plasma): 2% (Albumin)

Compound: CC(=O)Nc1ccc(O)cc1 [Paracetamol]
- main binding protein in the plasma [1]: Albumin
- Free fraction in the plasma ([1]; reference value in an adult): 95%

Compound: CCCN1CCCC[C@H]1C(=O)Nc1c(C)cccc1C [Ropivacaine]
- Excretion process: CYP1A2 (CYP1A2): CYP1A2 (90%),
- Excretion process: CYP3A4 (CYP3A4): CYP3A4 (9%),
- Excretion process: Renal [5]: Renal (1%)
- main binding protein in the plasma [1]: α1-Glycoprotein
- Free fraction in the plasma ([1]; reference value in an adult): 5%

Compound: Cn1c(=O)c2[nH]cnc2n(C)c1=O [Theophylline]
- Excretion process: CYP1A2 (CYP1A2): CYP1A2 (60%),
- Excretion process: Renal [5]: Renal (15%)
- Excretion process: CYP2E1 (CYP2E1): CYP2E1 (25%),

Compound: CC(=O)O[C@H]1C(=O)[C@@]2(C)[C@H]([C@H](OC(=O)c3ccccc3)[C@]3(O)C[C@H](OC(=O)[C@H](O)[C@@H](NC(=O)c4ccccc4)c4ccccc4)C(C)=C1C3(C)C)[C@]1(OC(C)=O)CO[C@@H]1C[C@@H]2O [paclitaxel, Paclitaxel]
- AUC [4, 6]: 1.7 ± 0.9 µM·h
- Cmax [4, 6]: 200 ± 100 nM
- T > 0.1 μM [4, 6]: 3.7 ± 2.3 h
- T > 0.5 μM [4, 6]: 7.4 ± 4.4 h
- AUC ([4]; without co-medication): 0.2 ± 0.1 µM·h
- T > 0.1 μM ([4]; without co-medication): 0 h
- T > 0.5 μM ([4]; without co-medication): 1.2 ± 0.9 h
- Cmax ([4]; without co-medication, rounded-up value): 100 nM

Compound: Gentamicin
- Free fraction in the plasma ([1]; plasma): 95%
